Assay results reported in paper PMC9105102, “Development and Biochemical Characterization of Self-Immolative Linker Containing GnRH-III-Drug Conjugates” (International Journal of Molecular Sciences, 2022).
Read-outs that look alike come from different tables or passages of the source.

What was measured:
[1] = target: T1, GnRH-R (membranes of human pituitary) (Homo sapiens, UniProt P30968); assay: Radioligand competition assay, displacement of [125I]-GnRH-I-[6D-Trp] (triptorelin), human pituitary membranes; format: binding
T1 construct: GnRH-Rs expressed on human pituitary and human prostate cancer cells; from tissue; host or cells: normal human pituitary (anterior lobe), autopsy; membrane homogenate
T1 sequence (P30968 1-328): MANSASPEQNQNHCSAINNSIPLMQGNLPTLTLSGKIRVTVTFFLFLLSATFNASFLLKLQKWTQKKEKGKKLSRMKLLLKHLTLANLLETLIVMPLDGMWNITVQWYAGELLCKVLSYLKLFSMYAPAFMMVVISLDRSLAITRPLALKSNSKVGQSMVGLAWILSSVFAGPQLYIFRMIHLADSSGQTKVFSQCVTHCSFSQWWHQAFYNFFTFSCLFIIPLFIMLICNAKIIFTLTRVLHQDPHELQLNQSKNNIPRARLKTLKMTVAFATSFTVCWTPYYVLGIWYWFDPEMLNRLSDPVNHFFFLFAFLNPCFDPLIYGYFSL
Description: (§1) A ligand competition assay with [^125I]-GnRH-I-[^6D-Trp] as radioligand was performed to examine the binding affinity of the GnRH-III-drug conjugates to GnRH-Rs expressed on human pituitary and human prostate cancer cells. Human prostate cancer cells were derived from patients at the time of initial surgical treatment, while tissue samples from normal human pituitary (anterior lobe) were obtained by autopsy. All subjects were informed and gave their consent for inclusion before they participated in the study. The preparation of the cell membranes was carried out according to the literature. The chloramines-T method was used to prepare radioiodinated GnRH-I agonist triptorelin which was purified by RP-HPLC [10, 38, 39, 47]. The displacement of [^125I]-GnRH-I-[^6D-Trp] was studied in an in vitro ligand competition assay to determine the binding affinities of the non-radio-labeled GnRH-III bioconjugates to GnRH-RI [10, 11, 38, 39]. Membrane homogenates containing […] protein were incubated in duplicate or triplicate with 60–80,000 cpm [^125I]-GnRH-I-[^6D-Trp] and rising concentration (1 pM—1 µM) of nonradioactive bioconjugates as competitors in a total volume of […] binding buffer. Protein concentration was determined by the method of Bradford using a Bio-Rad protein assay kit (Bio-Rad Laboratories, Hercules, CA, USA). The LIGAND-PC computerized curve-fitting program of Munson and Rodbard was used to determine the receptor binding characteristics and IC50 values.

[2] = target: T2, GnRH-R (membranes of human prostate cancer specimens) (Homo sapiens, UniProt P30968); assay: Radioligand competition assay, displacement of [125I]-GnRH-I-[6D-Trp] (triptorelin), human prostate cancer membranes; details: mean ± SE of two to three determinations, read-out: IC50 Prostate Cancer, competitive inhibition of [125I][6D-Trp]-GnRH-I binding
T2 construct: GnRH-Rs expressed on human pituitary and human prostate cancer cells; from tissue; host or cells: human prostate cancer specimens from patients (surgery); membrane homogenate
T2 sequence (P30968 1-328): T1 sequence (P30968 1-328)
Description: as §1

[3] = Degradation of drug conjugates in presence of rat liver lysosomal homogenate (LC-MS); format: in vitro ADME; details: pH 5, 37 °C; for release of the free PTX: within 24 h; for release of the smallest Dau-containing metabolite H-Lys(Dau-glutaryl)-OH / release of free Dau by lysosomal enzymes: LC-MS; for release of free Dau by lysosomal enzymes: up to 24 h
Description: The preparation of the rat liver lysosomal homogenate was carried out as recently reported. A Qubit Protein Assay Kit (Thermo Fischer Scientific, Waltham, MA, USA) was used to examine the concentration of the lysosomal proteins.
Initially, a stock solution of the GnRH-III-Dau conjugates in water (5 µg/µL) was prepared. For the degradation reaction, the conjugates and the lysosomal homogenate were diluted together in 0.2 M NaOAc buffer (pH 5) to a concentration of 0.25 µg/µL each. These mixtures were kept at 37 °C and at distinct time points (5 min, 1 h, 2 h, 4 h, 8 h and 24 h), 15 µL of each sample were quenched with 2 µL acetic acid and analyzed by LC-MS (System I).
The GnRH-III-PTX conjugates were dissolved in DMSO to a concentration of 10 mM. The reaction was carried out in 0.2 M NaOAc buffer (pH 5) with 10 µM conjugate and 0.025 µg/mL lysosomal homogenate. The reaction mixtures were incubated at 37 °C and aliquots of 60 μL were taken at 5 min, 1 h, 2 h, 4 h, 8 h and 24 h and quenched with 5 μL of acetic acid. The analysis of the samples was performed by LC–MS (System-II).

[4] = system: A2780 human ovarian cancer cells; assay: cells; format: cell-based; details: A2780 cells; treatment 24 h (Dau conjugates) or 6 h (PTX compounds), viability at 72 h; mean ± SE of two to three determinations; read-out: A2780 IC50
Description: (§2) For cultivation of A2780 human ovarian and Panc-1 human pancreatic cancer cells, RPMI-1640 medium with 10% FBS, L-glutamine and 1% Penicillin-Streptomycin were used. Cells were cultured in appropriate plastic flasks at 37 °C (humidified atmosphere, 5% CO2/95% air).
(§3) A set-up of 96-well plates was used to study the in vitro antiproliferative activity. Therefore, 5 × 10^3 cells in 100 µL complete medium were seeded to each well. After 24 h, complete medium was removed and cells were treated with 200 µL bioconjugate solution in serum-free medium (concentration range 0.0032–50 µM, control wells were treated with serum-free medium). Medium was taken out after 6 h treatment (PTX conjugates) or 24 h (Dau conjugates), replaced by complete medium and incubation was continued. To determine the cell viability, medium was removed after 72 h and 100 µL resazurin solution [45] (10% Tox-8 in FBS-free medium) was added to each well, followed by additional incubation of 2–3 h. A Tecan infinite 200 pro microplate reader (Tecan Group Ltd., Zürich, Switzerland) was used for fluorescence detection (λEx = 560 and λEm = 590 nm). Experiments were performed at least twice, using three parallels per concentration. The cell viability (and IC50 values) was calculated with GraphPad Prism using a nonlinear regression (sigmoidal dose-response).

[5] = system: Panc-1 human pancreatic cancer cells; assay: cells; format: cell-based; details: Panc-1 cells; treatment 24 h (Dau conjugates) or 6 h (PTX compounds), viability at 72 h; mean ± SE of two to three determinations; read-out: Panc-1 IC50
Description: as §2, §3

IC50 ([1]; human pituitary membranes, mean ± SE of two to three determinations, read-out: IC50 Pituitary, competitive inhibition of [125I][6D-Trp]-GnRH-I binding)	SMILES	IC50 [2]	detection of the diamine-PTX fragment ([3]; after 5 min of incubation)	release of the free PTX [3]	IC50 [4]	IC50 [5]	IC50 [1]	release of the smallest Dau-containing metabolite H-Lys(Dau-glutaryl)-OH [3]	release of free Dau by lysosomal enzymes [3]	detection of the diamine-PTX fragment ([3]; even after 24 h of incubation)
0.00272 ± 0.00095 µM	CCCC(=O)NCCCC[C@H](NC(=O)[C@H](Cc1c[nH]c2ccccc12)NC(=O)[C@H](Cc1c[nH]cn1)NC(=O)[C@@H]1CCC(=O)N1)C(=O)N[C@@H](Cc1c[nH]cn1)C(=O)N[C@@H](CC(=O)O)C(=O)N[C@@H](Cc1c[nH]c2ccccc12)C(=O)N[C@@H](CCCCN)C(=O)N1CCC[C@H]1C(=O)NCC(N)=O [Peptide I, GnRH-III-[^4Lys(Bu)]]	0.00311 ± 0.00076 µM								
	CCCC(=O)NCCCC[C@H](NC(=O)[C@H](Cc1c[nH]c2ccccc12)NC(=O)[C@H](Cc1c[nH]cn1)NC(=O)[C@@H]1CCC(=O)N1)C(=O)N[C@@H](Cc1c[nH]cn1)C(=O)N[C@@H](CC(=O)O)C(=O)N[C@@H](Cc1c[nH]c2ccccc12)C(=O)N[C@@H](CCCCNC(=O)CCCC(=O)N[C@H](C(=O)N[C@@H](CCCNC(N)=O)C(=O)Nc1ccc(COC(=O)N(C)CCN(C)C(=O)O[C@@H](C(=O)O[C@H]2C[C@@]3(O)[C@@H](OC(=O)c4ccccc4)[C@@H]4[C@]5(OC(C)=O)CO[C@@H]5C[C@H](O)[C@@]4(C)C(=O)[C@H](OC(C)=O)C(=C2C)C3(C)C)[C@@H](NC(=O)c2ccccc2)c2ccccc2)cc1)C(C)C)C(=O)N1CCC[C@H]1C(=O)NCC(N)=O [compound 14]	0.0107 ± 0.00182 µM	could be already detected	could not be detected	0.67 ± 0.07 µM	5.03 ± 1.91 µM	0.0105 ± 0.00201 µM			
	CCCC(=O)NCCCC[C@H](NC(=O)[C@H](Cc1c[nH]c2ccccc12)NC(=O)[C@H](Cc1c[nH]cn1)NC(=O)[C@@H]1CCC(=O)N1)C(=O)N[C@@H](Cc1c[nH]cn1)C(=O)N[C@@H](CC(=O)O)C(=O)N[C@@H](Cc1c[nH]c2ccccc12)C(=O)N[C@@H](CCCCNC(=O)CCCC(=O)N[C@H](C(=O)N[C@@H](C)C(=O)Nc1ccc(COC(=O)N(C)CCN(C)C(=O)O[C@@H](C(=O)O[C@H]2C[C@@]3(O)[C@@H](OC(=O)c4ccccc4)[C@@H]4[C@]5(OC(C)=O)CO[C@@H]5C[C@H](O)[C@@]4(C)C(=O)[C@H](OC(C)=O)C(=C2C)C3(C)C)[C@@H](NC(=O)c2ccccc2)c2ccccc2)cc1)C(C)C)C(=O)N1CCC[C@H]1C(=O)NCC(N)=O [compound 16]	0.00847 ± 0.00106 µM	could be already detected	could not be detected	0.66 ± 0.18 µM	4.89 ± 1.08 µM	0.00986 ± 0.00082 µM			
	CCCC(=O)NCCCC[C@H](NC(=O)[C@H](Cc1c[nH]c2ccccc12)NC(=O)[C@H](Cc1c[nH]cn1)NC(=O)[C@@H]1CCC(=O)N1)C(=O)N[C@@H](Cc1c[nH]cn1)C(=O)N[C@@H](CC(=O)O)C(=O)N[C@@H](Cc1c[nH]c2ccccc12)C(=O)N[C@@H](CCCCNC(=O)CCCC(=O)N[C@H]1C[C@H](O[C@H]2C[C@](O)(C(C)=O)Cc3c(O)c4c(c(O)c32)C(=O)c2c(OC)cccc2C4=O)O[C@@H](C)[C@H]1O)C(=O)N1CCC[C@H]1C(=O)NCC(N)=O [compound 23]	0.00861 ± 0.00108 µM			67.9 ± 25.4 µM	> 100 µM	0.0097 ± 0.00107 µM	confirming the release	free Dau could not be detected	
	CCCC(=O)NCCCC[C@H](NC(=O)[C@H]1Cc2ccccc2CN1C(=O)[C@@H]1CCC(=O)N1)C(=O)N[C@@H](Cc1c[nH]cn1)C(=O)N[C@@H](CC(=O)O)C(=O)N[C@@H](Cc1c[nH]c2ccccc12)C(=O)N[C@@H](CCCCNC(=O)CCCC(=O)N[C@H]1C[C@H](O[C@H]2C[C@](O)(C(C)=O)Cc3c(O)c4c(c(O)c32)C(=O)c2c(OC)cccc2C4=O)O[C@@H](C)[C@H]1O)C(=O)N1CCC[C@H]1C(=O)NCC(N)=O [compound 24]	0.0427 ± 0.00704 µM			48.14 ± 0.47 µM	> 100 µM	0.0363 ± 0.00317 µM	confirming the release	free Dau could not be detected	
	CCCC(=O)NCCCC[C@H](NC(=O)[C@H](Cc1c[nH]c2ccccc12)NC(=O)[C@H](Cc1c[nH]cn1)NC(=O)[C@@H]1CCC(=O)N1)C(=O)N[C@@H](Cc1c[nH]cn1)C(=O)N[C@@H](CC(=O)O)C(=O)N[C@@H](Cc1c[nH]c2ccccc12)C(=O)N[C@@H](CCCCNC(=O)CCCC(=O)N(C)CCN(C)C(=O)O[C@@H](C(=O)O[C@H]1C[C@@]2(O)[C@@H](OC(=O)c3ccccc3)[C@@H]3[C@]4(OC(C)=O)CO[C@@H]4C[C@H](O)[C@@]3(C)C(=O)[C@H](OC(C)=O)C(=C1C)C2(C)C)[C@@H](NC(=O)c1ccccc1)c1ccccc1)C(=O)N1CCC[C@H]1C(=O)NCC(N)=O [compound 25, GnRH-III-[2His-3Trp,8Lys(glutaryl-diamine-PTX)]]				41.5 ± 9.83 µM	> 100 µM				could not be detected
	CCCC(=O)NCCCC[C@H](NC(=O)[C@H]1Cc2ccccc2CN1C(=O)[C@@H]1CCC(=O)N1)C(=O)N[C@@H](Cc1c[nH]cn1)C(=O)N[C@@H](CC(=O)O)C(=O)N[C@@H](Cc1c[nH]c2ccccc12)C(=O)N[C@@H](CCCCNC(=O)CCCC(=O)N(C)CCN(C)C(=O)O[C@@H](C(=O)O[C@H]1C[C@@]2(O)[C@@H](OC(=O)c3ccccc3)[C@@H]3[C@]4(OC(C)=O)CO[C@@H]4C[C@H](O)[C@@]3(C)C(=O)[C@H](OC(C)=O)C(=C1C)C2(C)C)[C@@H](NC(=O)c1ccccc1)c1ccccc1)C(=O)N1CCC[C@H]1C(=O)NCC(N)=O [compound 26]	0.0222 ± 0.00096 µM			> 100 µM	> 100 µM	0.0234 ± 0.00167 µM			could not be detected
